From ChEMBL document CHEMBL1955753, “SAR-study on a new class of imidazo[1,2-a]pyridine-based inhibitors of 5-lipoxygenase” (Bioorg Med Chem Lett, 2012)

How the values were obtained:
[1] = target: T1, Polyunsaturated fatty acid 5-lipoxygenase (Homo sapiens, UniProt P09917); experiment: Inhibition of 5-lipoxygenase in human polymorphonuclear leukocytes assessed as reduction in A23187 and AA-stimulated 5-LO product formation preincubated for 15 mins prior stimulation measured after 10 mins by HPLC analysis; type: cell-based
T1 sequence (P09917 whole entry): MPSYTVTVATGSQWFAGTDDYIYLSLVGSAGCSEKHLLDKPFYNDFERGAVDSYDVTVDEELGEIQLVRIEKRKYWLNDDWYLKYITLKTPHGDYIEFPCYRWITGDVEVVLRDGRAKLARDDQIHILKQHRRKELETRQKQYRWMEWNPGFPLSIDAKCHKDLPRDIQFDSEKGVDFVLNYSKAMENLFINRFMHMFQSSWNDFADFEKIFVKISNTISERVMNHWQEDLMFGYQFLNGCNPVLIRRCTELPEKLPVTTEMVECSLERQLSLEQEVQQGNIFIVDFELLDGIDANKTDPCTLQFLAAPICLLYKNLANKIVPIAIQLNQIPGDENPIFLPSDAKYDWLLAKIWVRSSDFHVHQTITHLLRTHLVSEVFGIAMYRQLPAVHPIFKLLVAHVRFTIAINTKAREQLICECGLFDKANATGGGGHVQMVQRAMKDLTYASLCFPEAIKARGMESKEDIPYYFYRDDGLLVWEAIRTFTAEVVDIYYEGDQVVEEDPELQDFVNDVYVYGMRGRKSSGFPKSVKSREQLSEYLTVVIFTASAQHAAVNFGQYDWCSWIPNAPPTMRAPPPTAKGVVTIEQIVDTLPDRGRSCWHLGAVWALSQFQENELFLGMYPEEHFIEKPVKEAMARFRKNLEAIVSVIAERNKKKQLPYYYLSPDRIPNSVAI

[2] = target: T1, Polyunsaturated fatty acid 5-lipoxygenase; experiment: Inhibition of 5-lipoxygenase in S100 cell free fraction of human polymorphonuclear leukocytes assessed as reduction in 5-LO product formation preincubated for 15 mins measured after 10 mins by HPLC analysis; type: cell-based

Compound | IC50 [1] [nM] | IC50 [2] [nM]
Cc1ccc2nc(-c3ccncc3)c(NC3CCCCC3)n2c1 | 7200 | 7700
Cc1ccc(-c2nc3cc(C)ccn3c2NC2CCCC2)cc1 | 900 | –
Cc1ccc2nc(-c3ccc([N+](=O)[O-])cc3)c(NC3CCCCC3)n2c1 | 1530 | > 30000
Cc1ccc2nc(-c3ccc(N(C)C)cc3)c(NC3CCCCC3)n2c1 | 600 | –
CCOc1ccc2[nH]c(=O)c(-c3nc4ccc(C)cn4c3NC3CCCCC3)cc2c1 | 1800 | 21600
Clc1ccc2nc(-c3ccc(N4CCOCC4)cc3)n(CC3CCCCC3)c2c1 | 1200 | 5800
CN(C)c1ccc(-c2nc3ccc(Cl)cc3n2CC2CCCCC2)cc1 | 500 | > 10000
